Each structure is given as a SMILES string. A value given as a limit tells only on which side of the number the result lay.

Consider 11 molecules from paper PMC6100075, “Correlation between the Potency of Flavonoids on Mushroom Tyrosinase Inhibitory Activity and Melanin Synthesis in Melanocytes” (Molecules : A Journal of Synthetic Chemistry and Natural …, 2018).

The first series concerns B16-F10 melanoma cells. Description: Total melanin content assay. It counts as cell-based, Mus musculus (mouse). Conditions: Mus musculus, B16-F10; 15 μM; 72 h; relative to control; read-out: % Melanin Content. The protocol: Mus musculus (mouse) melanoma cell line, B16-F10 (ATCC® Number: CRL-6475™, Manassas, VA, USA), was cultured in complete Dulbecco′s Modified Eagle′s Medium (DMEM, phenol red-free medium) containing 10% fetal bovine serum, 25 mM glucose, 4 mM L-glutamine, 1 mM sodium pyruvate, 10 μg/mL penicillin, and 10 μg/mL streptomycin, at 37 °C, with 5% carbon dioxide (CO2) in a humidified atmosphere.
The total melanin content, produced both extracellularly and intracellularly, was determined as follows: B16-F10 cells were seeded onto a 24-well plate at a concentration of 50,000 cells/0.5 mL/well and were incubated for 24 h, followed by treatment with either the test compounds or the control (0.5% DMSO), and then incubated for 72 h. For extraction, the total produced melanin and 0.5 mL of 2 N NaOH containing 20% DMSO were added directly to the cell culture medium, mixed by pipetting and then incubated at room temperature for 1 h. The lysed cell extract was centrifuged at 13,000× g for 5 min. Finally, the supernatant was transferred to a 96-well plate and the relative melanin content was detected at 405 nm using a micro plate reader. Kojic acid and oxyresveratrol were used as positive controls.
`COc1cc(-c2coc3cc(O)cc(O)c3c2=O)ccc1O` [Compound 6, 3′-O-Methylorobol]: the activity at 15 µM turned out to be 170 ± 10.5%.
The same measure, in the same setting: in the case of `COc1ccc(-c2coc3cc(O)ccc3c2=O)cc1` [Compound 1, Formononetin] it was 134 ± 2.7%.

The series is the same for the next values; noted with them: Mus musculus, B16-F10; 30 μM; 72 h; relative to control; read-out: % Melanin Content.
With `COc1cc(-c2coc3cc(O)cc(O)c3c2=O)ccc1O` [Compound 6, 3′-O-Methylorobol], the activity at 30 µM is 216 ± 15.7%.
Same read-out and setting: in the case of `COc1ccc(-c2coc3cc(O)ccc3c2=O)cc1` [Compound 1, Formononetin] it was 155 ± 15.4%.

The next series deals with T1, murine tyrosinase (Mus musculus, UniProt P11344).
T1 construct: The cells were lysed by vortex and incubated at 4 °C for 1 h to solubilize the tyrosinase enzyme; endogenous in cells; host or cells: B16-F10 melanoma cells (Triton X-100 lysate, dialyzed)
T1 sequence (P11344 19-533): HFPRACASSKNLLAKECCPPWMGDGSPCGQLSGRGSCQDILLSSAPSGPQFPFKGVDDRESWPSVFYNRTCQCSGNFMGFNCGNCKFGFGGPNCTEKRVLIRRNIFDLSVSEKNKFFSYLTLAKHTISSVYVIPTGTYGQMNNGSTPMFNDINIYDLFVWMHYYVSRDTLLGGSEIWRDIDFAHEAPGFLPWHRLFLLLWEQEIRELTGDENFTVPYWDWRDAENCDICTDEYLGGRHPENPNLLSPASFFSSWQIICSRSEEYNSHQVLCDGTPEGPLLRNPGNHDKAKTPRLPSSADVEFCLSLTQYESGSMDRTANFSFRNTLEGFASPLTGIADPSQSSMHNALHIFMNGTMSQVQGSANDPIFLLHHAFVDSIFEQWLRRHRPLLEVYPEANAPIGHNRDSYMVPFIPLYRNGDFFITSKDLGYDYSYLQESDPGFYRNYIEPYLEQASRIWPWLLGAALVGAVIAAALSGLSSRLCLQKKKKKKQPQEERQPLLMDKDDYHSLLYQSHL
Description: Murine tyrosinase inhibitory assay (o-diphenolase activity, crude enzyme from B16-F10 melanoma cells).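 Note: crude tyrosinase taken from lysed, dialyzed B16-F10 cell extract, with the inhibition reaction incubated for 2 h at 37 °C.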 It counts as biochemical. To be noted: 200 μM; L-DOPA substrate; read-out: Murine Tyrosinase Inhibition, % (at 200 μM), symbol.
`COc1cc(-c2coc3cc(O)cc(O)c3c2=O)ccc1O` [Compound 6, 3′-O-Methylorobol]: the inhibition (in general, the percentage by which the read-out fell short of the control) at 200 µM was below 0%.
Still for that read-out and setting: in the case of `COc1ccc(-c2coc3cc(O)ccc3c2=O)cc1` [Compound 1, Formononetin] it was below 0%.

The next series relates to human melanoma cells (MMV II).
Assay: not given
Conditions: cited from earlier work. More on the design: method as in PMID 25248426.
For the molecule `O=c1cc(-c2ccccc2)oc2cc(O)cc(O)c12` [chrysin], the “effect on melanogenesis (in words)” value is reported as “melanogenesis-promoting actions”.
On to `O=c1c(O)c(-c2ccc(O)c(O)c2)oc2cc(O)ccc12` [fisetin], for which the “effect on melanogenesis (in words)” value is “melanogenesis-promoting actions”.
As for `O=c1c(O)c(-c2ccc(O)cc2)oc2cc(O)cc(O)c12` [kaempferol], the “effect on melanogenesis (in words)” value is on record as “melanogenesis-promoting actions”.
For the molecule `O=c1cc(-c2ccc(O)cc2)oc2cc(O)cc(O)c12` [apigenin], the “effect on melanogenesis (in words)” value is listed as “melanogenesis-promoting actions”.
On to `COc1cc(O)c2c(=O)c(O)c(-c3ccc(O)c(O)c3)oc2c1` [rhamnetin], for which the “effect on melanogenesis (in words)” value is on record as “melanogenesis-promoting actions”.
As to `O=c1cc(-c2ccc(O)c(O)c2)oc2cc(O)cc(O)c12` [luteolin], the “effect on melanogenesis (in words)” value is reported as “melanogenesis-promoting actions”.

The target in another series is mushroom tyrosinase (Agaricus bisporus, UniProt C7FF04). Description: Mushroom tyrosinase inhibitory assay (o-diphenolase activity, L-DOPA as substrate).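 Note: enzyme and test sample preincubated 10 min at 25 °C in pH 6.8 phosphate buffer, 50% DMSO vehicle as control, enzyme-free mixture as blank.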 It counts as biochemical. Conditions: 200 μM; L-DOPA substrate; read-out: Mushroom Tyrosinase Inhibition % Inhibition (at 200 μM).
Sequence of mushroom tyrosinase (Agaricus bisporus, UniProt C7FF04) (G1K3P4 entry or part of it): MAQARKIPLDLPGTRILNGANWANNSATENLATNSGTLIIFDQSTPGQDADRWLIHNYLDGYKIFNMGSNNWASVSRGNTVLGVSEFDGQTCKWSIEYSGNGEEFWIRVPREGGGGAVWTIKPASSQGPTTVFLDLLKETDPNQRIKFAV
Sequence of mushroom tyrosinase (Agaricus bisporus, UniProt C7FF04) (C7FF04 2-392): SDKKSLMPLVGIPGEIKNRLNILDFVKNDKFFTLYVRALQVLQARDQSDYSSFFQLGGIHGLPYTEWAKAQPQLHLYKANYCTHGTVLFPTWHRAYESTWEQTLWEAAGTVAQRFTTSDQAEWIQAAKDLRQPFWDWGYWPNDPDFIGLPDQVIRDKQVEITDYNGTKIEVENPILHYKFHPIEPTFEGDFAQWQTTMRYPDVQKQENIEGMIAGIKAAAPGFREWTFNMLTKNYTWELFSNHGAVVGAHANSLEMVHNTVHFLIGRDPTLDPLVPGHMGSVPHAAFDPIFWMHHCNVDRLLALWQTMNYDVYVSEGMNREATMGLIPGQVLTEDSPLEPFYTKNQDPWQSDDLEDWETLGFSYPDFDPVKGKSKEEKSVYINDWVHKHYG
`COc1cc(-c2coc3cc(O)cc(O)c3c2=O)ccc1O` [Compound 6, 3′-O-Methylorobol]: the inhibition at 200 µM amounted to 14.3 ± 1.1%.

The series is the same for the next values; noted with them: 300 μM; L-DOPA substrate; read-out: Mushroom Tyrosinase Inhibition % Inhibition (at 300 μM).
For `COc1ccc(-c2coc3cc(O)ccc3c2=O)cc1` [Compound 1, Formononetin], the inhibition at 300 µM worked out at 10%.

Still in this series, the particulars now being: o-diphenolase, L-DOPA substrate.
For the molecule `COc1cc(-c2coc3cc(O)cc(O)c3c2=O)ccc1O` [Compound 6, 3′-O-Methylorobol], the “inhibitory activity on mushroom tyrosinase (in words)” value was “did not show inhibitory activity”.
Same read-out and setting: the same measure for `COc1ccc(-c2coc3cc(O)ccc3c2=O)cc1` [Compound 1, Formononetin]: “did not show inhibitory activity”.

Test system in another series: not listed separately
Description: Cell viability assay (PrestoBlue resazurin).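 Note: mouse B16-F10 melanoma cells exposed to test samples for 72 h, with viability read as fluorescence of resorufin formed when living cells reduce PrestoBlue resazurin.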 It counts as cell-based, Mus musculus (mouse). To be noted: mouse, B16-F10 melanoma cells, 15 μM; 72 h; relative to control; read-out: % Cell Viability.
As to `COc1cc(-c2coc3cc(O)cc(O)c3c2=O)ccc1O` [Compound 6, 3′-O-Methylorobol], the viability (in general, a read-out of living cells in per cent, often relative to untreated cells) at 72 h, 15 µM amounted to 107 ± 6.2%.
With `COc1ccc(-c2coc3cc(O)ccc3c2=O)cc1` [Compound 1, Formononetin], the viability at 72 h, 15 µM was 96 ± 3.3%.

Staying with this series, now noted: mouse, B16-F10 melanoma cells, 30 μM; 72 h; relative to control; read-out: % Cell Viability.
Consider `COc1cc(-c2coc3cc(O)cc(O)c3c2=O)ccc1O` [Compound 6, 3′-O-Methylorobol], for which the viability at 72 h, 30 µM stood at 102 ± 2.7%.
Same read-out and setting: in the case of `COc1ccc(-c2coc3cc(O)ccc3c2=O)cc1` [Compound 1, Formononetin] it was 92.8 ± 9.4%.

The next series deals with mushroom tyrosinase.
Assay: not given
To be noted: read-out: monophenolase activity of mushroom tyrosinase IC50; cited from earlier work.
Regarding `COc1cc2c(=O)c(-c3ccc(O)cc3)coc2cc1O` [glycitein, 6-methoxy-7,4′-dihydroxyisoflavone], the half-inhibitory concentration (IC50) (usually the midpoint of a concentration-inhibition curve) was 237 µM.
Turning to `O=c1c(-c2ccc(O)cc2)coc2cc(O)c(O)cc12` [6,7,4′-trihydroxyisoflavone], the half-inhibitory concentration (IC50) was 9.2 µM.
In the case of `O=c1c(-c2ccc(O)cc2)coc2cc(O)ccc12` [daidzein, 7,4′-dihydroxyisoflavone], the half-inhibitory concentration (IC50) was 264 µM.
